≈ marks a conversion by molar mass, not a printed value. One block for each compound: values may come before it. Calls of active or inactive are those of the source. The calls are words filed in the database; no cut-off is given here. Residues, ends and D or L forms follow the SMILES beside them. *: point of attachment. X1 = CN(C)c1ccc2c(-c3ccc(C(=O)*)cc3C(=O)[O-])c3ccc(N(C)C)cc3[o+]c2c1; Octanoyl = CCCCCCCC(=O)*
Experiments:
Escherichia coli [1] = test: Antibacterial activity against Escherichia coli ATCC 25922 assessed as inhibition of bacterial growth incubated for 18 hrs by two fold serial dilution assay; format: functional
Acinetobacter baumannii [2] = test: Antibacterial activity against Acinetobacter baumannii ATCC 17978 assessed as inhibition of bacterial growth incubated for 18 hrs by two fold serial dilution assay; format: functional
Klebsiella pneumoniae [3] = test: Antibacterial activity against Klebsiella pneumoniae ATCC 700603 assessed as inhibition of bacterial growth incubated for 18 hrs by two fold serial dilution assay; format: functional
[4] = Hemolytic activity in human blood assessed as hemolysis incubated for 6 hrs by microplate reader analysis; format: toxicity, tissue-based
[5] = Hydrophobicity of the compound assessed as retention time by reversed-phase HPLC analysis; format: physicochemical
Escherichia coli [6] = test: Antibacterial activity against Escherichia coli ATCC 25922 assessed as inhibition of bacterial growth incubated for 18 hrs in presence of rifampicin with calcium and Mg2+ broth media by two fold serial dilution assay; format: functional, organism-based
Acinetobacter baumannii [7] = test: Antibacterial activity against Acinetobacter baumannii ATCC 17978 assessed as inhibition of bacterial growth incubated for 18 hrs in presence of rifampicin with calcium and Mg2+ broth media by two fold serial dilution assay; format: functional, organism-based
Klebsiella pneumoniae [8] = test: Antibacterial activity against Klebsiella pneumoniae ATCC 700603 assessed as inhibition of bacterial growth incubated for 18 hrs in presence of rifampicin with calcium and Mg2+ broth media by two fold serial dilution assay; format: functional, organism-based
Cell membrane [9] = test: Induction of outer membrane permeabilization in Escherichia coli ATCC 25922 assessed as increase in fluorescence by measuring fold change by NPN-dye based fluorescence analysis; format: subcellular
Escherichia coli [10] = test: Antibacterial activity against Escherichia coli ATCC 25922 assessed as fold increase in bacterial growth inhibition incubated for 1 hr by propidium iodide staining based fluorescence assay; format: functional
Escherichia coli [11] = test: (§1) Potentiation of rifampicin induced antibacterial activity against NDM1-producing carbapenem-resistant Escherichia coli infected CD1 mouse sepsis model assessed as reduction in bacterial colony forming unit in lung tissue at 25 mg/kg,SC administrated after 2 hrs of post-infection in presence of rifampicin; format: functional, organism-based
Escherichia coli [12] = test: as §1, with “after 6” for “after 2”; format: functional, organism-based
Escherichia coli [13] = test: Potentiation of rifampicin induced antibacterial activity against NDM1-producing carbapenem-resistant Escherichia coli infected CD1 mouse sepsis model assessed as reduction in bacterial colony forming unit in blood at 25 mg/kg,SC administrated after 2 hrs of post-infection in presence of rifampicin; format: functional
Escherichia coli [14] = test: Potentiation of rifampicin induced antibacterial activity against NDM1-producing carbapenem-resistant Escherichia coli infected CD1 mouse sepsis model assessed as reduction in bacterial colony forming unit in blood at 25 mg/kg,SC administrated after 6 hrs of post-infection in presence of rifampicin; format: functional
[15] = Cytotoxicity against human HK-2 cells assessed as cell growth inhibition incubated for 24 hrs by WST-1 reagent microplate reader assay; format: toxicity, cell-based
[16] = Nephrotoxicity in Sprague-Dawley rat assessed as increase in blood urea nitrogen level at 30 mg/kg,iv administration for 1 hr and measured after 25 hrs; format: toxicity, organism-based; conditions: in vivo, 26 h
[17] = Nephrotoxicity in Sprague-Dawley rat assessed as […] in creatinine level at 30 mg/kg,iv administration for 1 hr and measured after 25 hrs; format: toxicity, organism-based; conditions: in vivo, 26 h
[18] = Toxicity in male Sprague-Dawley rat assessed as reduction in body weight at 20 mg/kg,iv administration and observed on day 2; format: organism-based; conditions: in vivo, 48 h, time 2 day
[19] = Toxicity in male Sprague-Dawley rat assessed as reduction in body weight at 20 mg/kg,iv administration observed on day 14; format: organism-based; conditions: in vivo, 336 h, time 14 day
[20] = Toxicity in female Sprague-Dawley rat assessed as reduction in body weight at 20 to 60 mg/kg,iv administration observed on day 2; format: organism-based; conditions: in vivo, 48 h, dose 20-60 mg/kg, time 2 day
[21] = Toxicity in male Sprague-Dawley rat assessed as reduction in body weight at 40 mg/kg,iv administration observed on day 14 relative to control; format: organism-based; design: scale not given: the % may be the effect or the level left; conditions: in vivo, 336 h, time 14 day
[22] = Toxicity in male Sprague-Dawley rat assessed as reduction in body weight at 60 mg/kg,iv administration observed on day 14 relative to control; format: organism-based; design: scale not given: the % may be the effect or the level left; conditions: in vivo, 336 h, time 14 day
[23] = Toxicity in female Sprague-Dawley rat assessed as reduction in body weight at 20 to 60 mg/kg,iv administration observed on day 4; format: organism-based; conditions: in vivo, 96 h, dose 20-60 mg/kg, time 4 day
[24] = Toxicity in male Sprague-Dawley rat assessed as no observed adverse effect level at iv administration and observed on day 14; format: organism-based; conditions: in vivo, time 14 day
[25] = Toxicity in female Sprague-Dawley rat assessed as no observed adverse effect level at iv administration and observed on day 14; format: organism-based; conditions: in vivo, time 14 day
[26] = AUClast in CD1 mouse at 1 mg/kg,iv administration measured upto 1 hr by LC-MS/MS analysis; format: ADME, organism-based; design: time < 1 hrs, dose 1 mg/kg, route iv; conditions: in vivo
[27] = AUClast in CD1 mouse at 3 mg/kg,iv administration measured upto 1 hr by LC-MS/MS analysis; format: ADME, organism-based; design: dose 3 mg/kg, time < 1 hrs, route iv; conditions: in vivo
[28] = AUClast in CD1 mouse at 10 mg/kg,iv administration measured upto 1 hr by LC-MS/MS analysis; format: ADME, organism-based; design: time < 1 hrs, dose 10 mg/kg, route iv; conditions: in vivo
[29] = Clearance in CD1 mouse at 1 mg/kg,iv administration measured upto 1 hr by LC-MS/MS analysis; format: ADME, organism-based; conditions: in vivo
[30] = Clearance in CD1 mouse at 3 mg/kg,iv administration measured upto 1 hr by LC-MS/MS analysis; format: ADME, organism-based; conditions: in vivo
[31] = Clearance in CD1 mouse at 10 mg/kg,iv administration measured upto 1 hr by LC-MS/MS analysis; format: ADME, organism-based; conditions: in vivo
[32] = AUClast in Sprague-Dawley rat at 3 mg/kg,iv administration measured upto 24 hr by LC-MS/MS analysis; format: ADME, organism-based; design: time < 24 hrs, dose 3 mg/kg, route iv; conditions: in vivo
[33] = Clearance in Sprague-Dawley rat at 3 mg/kg,iv administration measured upto 24 hr by LC-MS/MS analysis; format: ADME, organism-based; conditions: in vivo
[34] = Volume of distribution in Sprague-Dawley rat at 3 mg/kg,iv administration measured upto 24 hr by LC-MS/MS analysis; format: ADME, organism-based; conditions: in vivo
Cell membrane [35] = test: Induction of outer membrane disruption in Acinetobacter baumannii ATCC 17978 at 5 uM incubated for 30 mins by confocal laser scanning microscopy; format: subcellular
[36] = Drug localization in Acinetobacter baumannii ATCC 17978 assessed as increase in fluorescence at cytosol at 5 uM incubated for 30 mins by confocal laser scanning microscopy; format: ADME, subcellular; conditions: 0.5 h
[37] = Drug localization in Escherichia coli ATCC 25922 assessed as increase in fluorescence at membrane at […] incubated for 30 mins by confocal laser scanning microscopy; format: ADME, cell membranes; conditions: 0.5 h, dose 0.63 µM
[38] = Drug localization in Escherichia coli ATCC 25922 assessed as increase in fluorescence at membrane at […] by fluorescence-activated cell sorting analysis; format: ADME, cell membranes; conditions: dose 0.13 µM

Compound: CCCCCCCC(=O)N[C@@H](CCCCN)C(=O)N[C@@H](CCCCN)C(=O)N[C@@H](C)C(=O)N[C@@H](CC(C)C)C(=O)N[C@@H](CCCCN)C(=O)N[C@@H](CC(C)C)C(=O)N[C@@H](C)C(=O)N[C@@H](CCCCN)C(=O)N[C@@H](CCCCN)C(=O)N1CCC[C@H]1C(=O)N[C@@H](CC(C)C)C(=O)N[C@@H](CCCCN)C(=O)N[C@@H](CC(C)C)C(=O)N[C@@H](CC(C)C)C(=O)N[C@@H](CCCCN)C(N)=O (HELM PEPTIDE1{[CCCCCCCC(=O)[*:2]].K.K.A.L.K.L.A.K.K.P.L.K.L.L.K.[am]}$$$$V2.0)
- MIC (Escherichia coli [1]): > 80 µM
- MIC (Acinetobacter baumannii [2]): 20 µM (≈ 36.9 µg/mL)
- MIC (Klebsiella pneumoniae [3]): > 80 µM
- MHC10 [4]: > 160 µM
- Retention_time [5]: 18.1 min
- Activity (Escherichia coli [6]): inactive
- Activity (Acinetobacter baumannii [7]): inactive
- Activity (Klebsiella pneumoniae [8]): inactive
- fold change (FC) (Cell membrane [9]): 10
- fold change (FC) (Escherichia coli [10]): 10
- Activity (Escherichia coli [11]): Active
- Activity (Escherichia coli [12]): Active
- Activity (Escherichia coli [13]): >4 log10CFU
- Activity (Escherichia coli [14]): >4 log10CFU
- IC50 at 24 h [15]: 86.9 µM
- Activity [16]: 19 mg/dL
- Activity [17]: 0.28 mg/dL
- Activity [18]: Toxic
- Activity [19]: Non-Toxic
- Activity [20]: Toxic
- Activity [21]: 9%
- Activity [22]: 9%
- Activity [23]: Non-Toxic
- NOAEL at 336 h [24]: 20 mg/kg
- NOAEL at 336 h [25]: 60 mg/kg
- AUClast [26]: 88.9 ng·h/mL
- AUClast [27]: 263 ng·h/mL
- AUClast [28]: 941 ng·h/mL
- clearance [29]: 218 mL/min/kg
- clearance [30]: 182 mL/min/kg
- clearance [31]: 190 mL/min/kg
- AUClast [32]: 246 ng·h/mL
- clearance [33]: 192 mL/min/kg
- Vd [34]: 3.07 L/kg

- Activity (Cell membrane [35]): Active
- Drug uptake [36]: Active
- Drug uptake [37]: Active
- Drug uptake [38]: Active
Compound: CCCCCCCC(=O)N[C@@H](CCCCNC(=O)c1ccc(-c2c3ccc(N(C)C)cc3[o+]c3cc(N(C)C)ccc23)c(C(=O)[O-])c1)C(=O)N[C@@H](CCCCN)C(=O)N[C@@H](C)C(=O)N[C@@H](CC(C)C)C(=O)N[C@@H](CCCCN)C(=O)N[C@@H](CC(C)C)C(=O)N[C@@H](C)C(=O)N[C@@H](CCCCN)C(=O)N[C@@H](CCCCN)C(=O)N1CCC[C@H]1C(=O)N[C@@H](CC(C)C)C(=O)N[C@@H](CCCCN)C(=O)N[C@@H](CC(C)C)C(=O)N[C@@H](CC(C)C)C(=O)N[C@@H](CCCCN)C(N)=O (Octanoyl-K(X1)KALKLAKKPLKLLK-NH2)
